Legend:
Carboplatin = compound: C1CC(C1)(C(=O)[O-])C(=O)[O-].N.N.[Pt+2] [Carboplatin]; conditions: max 10 µM
Outline: (§1)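 Cancer cell lines were dosed for 72 hours (final DMSO typically 0.2%) after 24 hours at 37°C and 5% CO2 in 1536-well plates containing 7.5 μl DMEM/F12 or RPMI with 10% FBS. Viability came from CellTiter-Glo 2.0 luminescence, scaled between blank-well and DMSO-well means, and dose responses were fitted to a two-parameter logistic curve with a non-linear mixed effects model. The single-agent IC50 was obtained from this fit.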

AZD5363 = compound: C1CN(CCC1(C(=O)N[C@@H](CCO)C2=CC=C(C=C2)Cl)N)C3=NC=NC4=C3C=CN4 [AZD5363]; conditions: max 10 µM
Outline: as §1

AZD1775 = compound: C=CCn1c(=O)c2cnc(Nc3ccc(N4CCN(C)CC4)cc3)nc2n1-c1cccc(C(C)(C)O)n1 [AZD1775]
Outline: as §1

Trametinib = compound: CC(=O)Nc1cccc(-n2c(=O)n(C3CC3)c(=O)c3c(Nc4ccc(I)cc4F)n(C)c(=O)c(C)c32)c1 [Trametinib]; conditions: max 1 µM
Outline: as §1

Paclitaxel = compound: CC(=O)O[C@H]1C(=O)[C@@]2(C)[C@H]([C@H](OC(=O)c3ccccc3)[C@]3(O)C[C@H](OC(=O)[C@H](O)[C@@H](NC(=O)c4ccccc4)c4ccccc4)C(C)=C1C3(C)C)[C@]1(OC(C)=O)CO[C@@H]1C[C@@H]2O [Paclitaxel]; conditions: max 3 µM
Outline: as §1

Palbociclib = compound: CC(=O)c1c(C)c2cnc(Nc3ccc(N4CCNCC4)cn3)nc2n(C2CCCC2)c1=O [Palbociclib]; conditions: max 10 µM
Outline: as §1

AZD1390 = compound: CC(C)n1c(=O)n(C)c2cnc3cc(F)c(-c4ccc(OCCCN5CCCCC5)nc4)cc3c21 [AZD1390]; conditions: max 0.3 µM
Outline: as §1

Venetoclax = compound: CC1(C)CCC(CN2CCN(c3ccc(C(=O)NS(=O)(=O)c4ccc(NCC5CCOCC5)c([N+](=O)[O-])c4)c(Oc4cnc5[nH]ccc5c4)c3)CC2)=C(c2ccc(Cl)cc2)C1 [Venetoclax]; conditions: max 1 µM
Outline: as §1

Dasatinib = compound: CC1=C(C(=CC=C1)Cl)NC(=O)C2=CN=C(S2)NC3=CC(=NC(=N3)C)N4CCN(CC4)CCO [Dasatinib]; conditions: max 2 µM
Outline: as §1

SG3199 = compound: CC1=CN2[C@@H](C1)C=NC3=CC(=C(C=C3C2=O)OC)OCCCCCOC4=C(C=C5C(=C4)N=C[C@@H]6CC(=CN6C5=O)C)OC [SG3199]; conditions: max 0.001 µM
Outline: as §1

AZD2811 = compound: CCN(CCO)CCCOc1ccc2c(Nc3cc(CC(=O)Nc4cccc(F)c4)[nH]n3)ncnc2c1 [AZD2811]; conditions: max 1 µM
Outline: as §1

SN-38 = compound: CCc1c2c(nc3ccc(O)cc13)-c1cc3c(c(=O)n1C2)COC(=O)[C@]3(O)CC [SN-38]; conditions: max 0.3 µM
Outline: as §1

AZD0156 = compound: CN(C)CCCOc1ccc(-c2ccc3ncc4c(c3c2)n(C2CCOCC2)c(=O)n4C)cn1 [AZD0156]
Outline: as §1

AZD4320 = compound: CN(CC[C@H](CSC1=CC=CC=C1)NC2=C(C=C(C=C2)S(=O)(=O)NC(=O)C3=CC=C(C=C3)N4CCC(CC4)[C@H](C5=CC=CC=C5C6=CC=C(C=C6)Cl)O)S(=O)(=O)C(F)(F)F)CCO [AZD4320]; conditions: max 1 µM
Outline: as §1

Alisertib = compound: COc1cc(Nc2ncc3c(n2)-c2ccc(Cl)cc2C(c2c(F)cccc2OC)=NC3)ccc1C(=O)O [Alisertib]; conditions: max 10 µM
Outline: as §1

Etoposide = compound: COc1cc([C@@H]2c3cc4c(cc3[C@@H](O[C@@H]3O[C@@H]5CO[C@@H](C)O[C@H]5[C@H](O)[C@H]3O)[C@H]3COC(=O)[C@H]23)OCO4)cc(OC)c1O [Etoposide]; conditions: max 10 µM
Outline: as §1

Gefitinib = compound: COc1cc2ncnc(Nc3ccc(F)c(Cl)c3)c2cc1OCCCN1CCOCC1 [Gefitinib]; conditions: max 10 µM
Outline: as §1

Prexasertib = compound: COc1cccc(OCCCN)c1-c1cc(Nc2cnc(C#N)cn2)n[nH]1 [Prexasertib]; conditions: max 1 µM
Outline: as §1

Doxorubicin = compound: COc1cccc2c1C(=O)c1c(O)c3c(c(O)c1C2=O)C[C@@](O)(C(=O)CO)C[C@@H]3O[C@H]1C[C@H](N)[C@H](O)[C@H](C)O1 [Doxorubicin]; conditions: max 1 µM
Outline: as §1

AZD5153 = compound: COc1nnc2ccc(N3CCC(c4ccc(OCCN5CCN(C)C(=O)[C@H]5C)cc4)CC3)nn12 [AZD5153]; conditions: max 1 µM
Outline: as §1

Lapatinib = compound: CS(=O)(=O)CCNCc1ccc(-c2ccc3ncnc(Nc4ccc(OCc5cccc(F)c5)c(Cl)c4)c3c2)o1 [Lapatinib]; conditions: max 10 µM
Outline: as §1

AZD8186 = compound: C[C@@H](Nc1cc(F)cc(F)c1)c1cc(C(=O)N(C)C)cc2c(=O)cc(N3CCOCC3)oc12 [AZD8186]; conditions: max 10 µM
Outline: as §1

Crizotinib = compound: C[C@@H](Oc1cc(-c2cnn(C3CCNCC3)c2)cnc1N)c1c(Cl)ccc(F)c1Cl [Crizotinib]; conditions: max 10 µM
Outline: as §1

Savolitinib = compound: C[C@@H](c1ccc2nccn2c1)n1nnc2ncc(-c3cnn(C)c3)nc21 [Savolitinib]; conditions: max 1 µM
Outline: as §1

AZD6738 = compound: C[C@@H]1COCCN1C2=NC(=NC(=C2)C3(CC3)[S@](=N)(=O)C)C4=C5C=CNC5=NC=C4 [AZD6738]; conditions: max 10 µM
Outline: as §1

AZD5991 = compound: Cc1c2c(nn1C)CSCc1cc(n(C)n1)CSc1cc(c3ccccc3c1)OCCCc1c(C(=O)O)n(C)c3c-2c(Cl)ccc13 [AZD5991]; conditions: max 1 µM
Outline: as §1

AZD7648 = compound: Cc1cc2ncnn2cc1Nc1ncc2c(n1)n(C1CCOCC1)c(=O)n2C [AZD7648]; conditions: max 10 µM
Outline: as §1

Taselisib = compound: Cc1nc(-c2cn3c(n2)-c2ccc(-c4cnn(C(C)(C)C(N)=O)c4)cc2OCC3)n(C(C)C)n1 [Taselisib]; conditions: max 10 µM
Outline: as §1

Selumetinib = compound: Cn1cnc2c(F)c(Nc3ccc(Br)cc3Cl)c(C(=O)NOCCO)cc21 [Selumetinib]; conditions: max 10 µM
Outline: as §1

SRA737 = compound: N#Cc1cnc(Nc2cc(NC[C@H]3CNCCO3)c(C(F)(F)F)cn2)cn1 [SRA737]; conditions: max 10 µM
Outline: as §1

MK-2206 = compound: NC1(c2ccc(-c3nc4ccn5c(=O)[nH]nc5c4cc3-c3ccccc3)cc2)CCC1 [MK-2206]; conditions: max 10 µM
Outline: as §1

Gemcitabine = compound: Nc1ccn([C@@H]2O[C@H](CO)[C@@H](O)C2(F)F)c(=O)n1 [Gemcitabine]; conditions: max 0.3 µM
Outline: as §1

[1] = compound: O=C(Nc1ccc2[nH]nc(-c3ccncc3)c2c1)[C@@H]1CCN(CC(=O)N2CCN(c3ccc(-c4ncccn4)cc3)CC2)C1; conditions: max 5 µM
Outline: as §1

Olaparib = compound: O=C(c1cc(Cc2n[nH]c(=O)c3ccccc23)ccc1F)N1CCN(C(=O)C2CC2)CC1 [Olaparib]; conditions: max 10 µM
Outline: as §1

5-Fluorouracil = compound: O=c1[nH]cc(F)c(=O)[nH]1 [5-Fluorouracil]; conditions: max 20 µM
Outline: as §1

Cell Line | IC50, cell viability 72 h (Carboplatin) [nM] | IC50, cell viability 72 h (AZD5363) [nM] | IC50, cell viability 72 h (AZD1775; max 3 µM) [nM] | IC50, cell viability 72 h (Trametinib) [nM] | IC50, cell viability 72 h (Paclitaxel) [nM] | IC50, cell viability 72 h (Palbociclib) [nM] | IC50, cell viability 72 h (AZD1390) [nM] | IC50, cell viability 72 h (Venetoclax) [nM] | IC50, cell viability 72 h (Dasatinib) [nM] | IC50, cell viability 72 h (SG3199) [nM] | IC50, cell viability 72 h (AZD2811) [nM] | IC50, cell viability 72 h (SN-38) [nM] | IC50, cell viability 72 h (AZD0156; max 3 µM) [nM] | IC50, cell viability 72 h (AZD4320) [nM] | IC50, cell viability 72 h (Alisertib) [nM] | IC50, cell viability 72 h (Etoposide) [nM] | IC50, cell viability 72 h (Gefitinib) [nM] | IC50, cell viability 72 h (Prexasertib) [nM] | IC50, cell viability 72 h (Doxorubicin) [nM] | IC50, cell viability 72 h (AZD5153) [nM] | IC50, cell viability 72 h (Lapatinib) [nM] | IC50, cell viability 72 h (AZD8186) [nM] | IC50, cell viability 72 h (Crizotinib) [nM] | IC50, cell viability 72 h (Savolitinib) [nM] | IC50, cell viability 72 h (AZD6738) [nM] | IC50, cell viability 72 h (AZD5991) [nM] | IC50, cell viability 72 h (AZD7648) [nM] | IC50, cell viability 72 h (Taselisib) [nM] | IC50, cell viability 72 h (Selumetinib) [nM] | IC50, cell viability 72 h (SRA737) [nM] | IC50, cell viability 72 h (MK-2206) [nM] | IC50, cell viability 72 h (Gemcitabine) [nM] | IC50, cell viability 72 h [1] [nM] | IC50, cell viability 72 h (Olaparib) [nM] | IC50, cell viability 72 h (5-Fluorouracil) [nM] | IC50, cell viability 72 h (AZD1775; max 1 µM) [nM] | IC50, cell viability 72 h (AZD0156; max 1 µM) [nM]
NB14 (Neuroblastoma) | > 10000 | > 10000 | 293 | 570 | < 3 | 2360 | > 300 | 726 | > 2000 | > 1 | 24.9 | 5.04 | > 3000 | 126 | 25.1 | 849 | > 10000 | 4.03 | 174 | 451 | > 10000 | > 10000 | 1280 | > 1000 | 1350 | 566 | > 10000 | > 10000 | > 10000 | 677 | 9150 | 128 | > 5000 | > 10000 | > 20000 |  | 
CAL-54 (Kidney Carcinoma) | > 10000 | 9910 | 452 | > 1000 | 399 | 4130 | > 300 | > 1000 | 33.6 | > 1 | > 1000 | 15.6 | > 3000 | > 1000 | 4710 | > 10000 | 5890 | 38.5 | 936 | 102 | 7990 | 873 | > 10000 | > 1000 | 5490 | > 1000 | > 10000 | 2280 | > 10000 | > 10000 | 3360 | 23.4 | > 5000 | > 10000 | > 20000 |  | 
MDA-MB-468 (Breast Carcinoma) | > 10000 | > 10000 | 1790 | 415 | 111 | > 10000 | > 300 | > 1000 | > 2000 | > 1 | > 1000 | 40 | > 3000 | 670 | 1520 | > 10000 |  | 618 | > 1000 | > 1000 | 9240 | 9070 | > 10000 |  | 6880 | > 1000 | > 10000 | > 10000 | > 10000 | > 10000 | 9170 | 263 | > 5000 | > 10000 | > 20000 |  | 
Hs-633T (Other Solid Carcinomas) | > 10000 | > 10000 | 472 | 656 | 30.4 | > 10000 | > 300 | > 1000 | 334 | > 1 | > 1000 | 38.2 | > 3000 | > 1000 | 9060 | 5070 | > 10000 | 81.4 | 380 | 570 | > 10000 | > 10000 | 7000 | > 1000 | 3300 | > 1000 | > 10000 | 7460 | > 10000 | > 10000 | > 10000 | 14.5 | 3360 | > 10000 | > 20000 |  | 
HO-1-u-1 (Oral Cavity Carcinoma) | > 10000 | 1310 | 816 | > 1000 | 820 | > 10000 | > 300 | > 1000 | 532 | > 1 | > 1000 | 239 | > 3000 | > 1000 | 6330 | > 10000 | > 10000 | 28.8 | > 1000 | > 1000 | 7600 | > 10000 | > 10000 | > 1000 | 3160 | > 1000 | > 10000 | 618 | > 10000 | 6170 | > 10000 | > 300 | 4140 | > 10000 | > 20000 |  | 
RH-18 (Rhabdomyosarcoma) |  |  |  |  |  |  |  |  |  | > 1 | > 1000 | > 300 |  |  |  |  |  | > 1000 | 909 |  |  |  |  |  | > 10000 |  | > 10000 |  |  |  |  |  |  | > 10000 |  | > 1000 | > 1000
